In paper PMC8843100, “Development of newly synthesised quinazolinone-based CDK2 inhibitors with potent efficacy against melanoma” (Journal of Enzyme Inhibition and Medicinal Chemistry, 2022):

Legend:
DU-145 = assay: NCI-60 single dose screen, sulforhodamine B; assay type: cell-based, human; conditions: Prostate cancer DU-145; single dose 10^−5 M
Experimental: (§1) In this research, all of the newly synthesised quinazolinones were subjected to in vitro anticancer screening by the National Cancer Institute (USA) against 60 different human cell lines including leukaemia, non-small cell lung cancer, colon cancer, CNS cancer, melanoma, ovarian cancer, renal cancer, prostate cancer, and breast cancer. The tested compounds were evaluated at a single dose (10^−5 M). […] Regarding the benzenesulfonamide counterparts, the introduction of an electron-withdrawing group on the benzenesulfonamide moiety increased the inhibitory activity on the glioblastoma cell line SNB-75 as depicted by the chloro derivative 5c (GI% = 63.09) which was higher than that of the unsubstituted derivative 5a (GI% = 40.06) and the methyl derivative 5b (GI% = 33.03).
(§2) 1. Cytotoxicity screening against a panel of 60 human tumor cell lines
(§3) All the compounds were selected for NCI-60 Human Tumor Cell Lines Screen by the Developmental Therapeutics Program (DTP) at the National Cancer Institute (NCI), Maryland, USA. The operation of this screen utilizes 60 different human tumor cell lines, representing leukemia, non-small-cell lung cancer, colon cancer, CNS cancer, melanoma, ovarian cancer, renal cancer, prostate cancer and breas t cancer.
(§4) The compounds were supplied as dry powder and a single concentration is tested in all 60 cell lines at a single dose of 10 µM solution in dimethyl sulfoxide (DMSO) using Sulforhodamine B assay. Briefly, cells are seeded in 96 well plates at an appropriate density and incubated for 1 day. After 1 day, some of the plates are processed to determine the density time zero. To the remaining plates, compounds are added at 10 µM concentration. Plates are incubated a further 2 days, then fixed and staine d with sulphorhodamine B. Growth inhibition is calculated relative to cells without drug treatment and the time zero control. The use of a time zero control allows the determination of cell kill as well as net growth inhibition. […]

HCT-116 = assay: NCI-60 single dose screen, sulforhodamine B; assay type: cell-based, human; conditions: Colon cancer HCT-116; single dose 10^−5 M
Experimental: as §1, §2, §3, §4

HCT-15 = assay: NCI-60 single dose screen, sulforhodamine B; assay type: cell-based, human; conditions: Colon cancer HCT-15; single dose 10^−5 M
Experimental: as §1, §2, §3, §4

HOP-62 = assay: NCI-60 single dose screen, sulforhodamine B; assay type: cell-based, human; conditions: Non-small cell lung cancer HOP-62; single dose 10^−5 M
Experimental: as §1, §2, §3, §4

MOLT-4 = assay: NCI-60 single dose screen, sulforhodamine B; assay type: cell-based, human; conditions: Leukaemia MOLT-4; single dose 10^−5 M
Experimental: as §1, §2, §3, §4

NCI-H23 = assay: NCI-60 single dose screen, sulforhodamine B; assay type: cell-based, human; conditions: Non-small cell lung cancer NCI-H23; single dose 10^−5 M
Experimental: as §1, §2, §3, §4

OVCAR-4 = assay: NCI-60 single dose screen, sulforhodamine B; assay type: cell-based, human; conditions: Ovarian cancer OVCAR-4; single dose 10^−5 M
Experimental: as §1, §2, §3, §4

OVCAR-5 = assay: NCI-60 single dose screen, sulforhodamine B; assay type: cell-based, human; conditions: Ovarian cancer OVCAR-5; single dose 10^−5 M
Experimental: as §1, §2, §3, §4

OVCAR-8 = assay: NCI-60 single dose screen, sulforhodamine B; assay type: cell-based, human; conditions: Ovarian cancer OVCAR-8; single dose 10^−5 M
Experimental: as §1, §2, §3, §4

RPMI-8226 = assay: NCI-60 single dose screen, sulforhodamine B; assay type: cell-based, human; conditions: Leukaemia RPMI-8226; single dose 10^−5 M
Experimental: as §1, §2, §3, §4

SF-268 = assay: NCI-60 single dose screen, sulforhodamine B; assay type: cell-based, human; conditions: CNS cancer SF-268; single dose 10^−5 M
Experimental: as §1, §2, §3, §4

SF-539 = assay: NCI-60 single dose screen, sulforhodamine B; assay type: cell-based, human; conditions: CNS cancer SF-539; single dose 10^−5 M
Experimental: as §1, §2, §3, §4

SK-MEL-28 = assay: NCI-60 single dose screen, sulforhodamine B; assay type: cell-based, human; conditions: Melanoma SK-MEL-28; single dose 10^−5 M
Experimental: as §1, §2, §3, §4

SK-MEL-2 = assay: NCI-60 single dose screen, sulforhodamine B; assay type: cell-based, human; conditions: Melanoma SK-MEL-2; single dose 10^−5 M
Experimental: as §1, §2, §3, §4

SK-MEL-5 = assay: NCI-60 single dose screen, sulforhodamine B; assay type: cell-based, human; conditions: Melanoma SK-MEL-5; single dose 10^−5 M
Experimental: as §1, §2, §3, §4

T-47D = assay: NCI-60 single dose screen, sulforhodamine B; assay type: cell-based, human; conditions: Breast cancer T-47D; single dose 10^−5 M
Experimental: as §1, §2, §3, §4

TK-10 = assay: NCI-60 single dose screen, sulforhodamine B; assay type: cell-based, human; conditions: Renal cancer TK-10; single dose 10^−5 M
Experimental: as §1, §2, §3, §4

UO-31 = assay: NCI-60 single dose screen, sulforhodamine B; assay type: cell-based, human; conditions: Renal cancer UO-31; single dose 10^−5 M
Experimental: as §1, §2, §3, §4

HL-60(TB) = assay: NCI-60 single dose screen, sulforhodamine B; assay type: cell-based, human; conditions: Leukaemia HL-60(TB); single dose 10^−5 M
Experimental: as §1, §2, §3
(§5) The compounds were supplied as dry powder and a single concentration is tested in all 60 cell lines at a single dose of 10 µM solution in dimethyl sulfoxide (DMSO) using Sulforhodamine B assay. Briefly, cells are seeded in 96 well plates at an appropriate density and incubated for 1 day. After 1 day, some of the plates are processed to determine the density time zero. To the remaining plates, compounds are added at 10 µM concentration. Plates are incubated a further 2 days, then fixed and staine d with sulphorhodamine B. Growth inhibition is calculated relative to cells without drug treatment and the time zero control. The use of a time zero control allows the determination of cell kill as well as net growth inhibition.
(§6) 2. Detection of IC50 against MDA-MB-435, SNB-75 cell lines and normal cell line WI -38.
(§7) Antiproliferative activities of 5c in melanoma cell line MDA-MB-435, glioblastoma cell line SNB-75 and normal cell line WI -38 and that of 8a in melanoma cell line MDA-MB-435 and normal cell line WI-38 were measured spectrophotometrically using in vitro MTT based toxicology assay kit (catalog no. M -5655, M-8910) (Sigma Aldrich), according to the manufacturer’s protocol. The three examined cell lin es were obtained from American Type Culture Collection (ATCC). Briefly, cells were platted (cells density 1.2 – 1.8 × 10,000 cells/well) in a volume of 100 µl complete growth medium + 100 μl of the tested compound per well in a 96-well plate for 48 h before the MTT assay. The cultures were removed from incubator into laminar flow hood then each vial of MTT [M-5655] should be reconstituted with 3 ml of medium or balanced salt solution without phenol red and serum. Reconstituted MTT was added in an amount equal to […]

IGROV1 = assay: NCI-60 single dose screen, sulforhodamine B; assay type: cell-based, human; conditions: Ovarian cancer IGROV1; single dose 10^−5 M
Experimental: as §1, §2, §3, §5, §6, §7

MCF7 = assay: NCI-60 single dose screen, sulforhodamine B; assay type: cell-based, human; conditions: Breast cancer MCF7; single dose 10^−5 M
Experimental: as §1, §2, §3, §5, §6, §7

MDA-MB-468 = assay: NCI-60 single dose screen, sulforhodamine B; assay type: cell-based, human; conditions: Breast cancer MDA-MB-468; single dose 10^−5 M
Experimental: as §1, §2, §3, §5, §6, §7

Structure (SMILES) | GI% at 10^−5 M (DU-145) | GI% at 10^−5 M (HCT-116) | GI% at 10^−5 M (HCT-15) | GI% at 10^−5 M (HOP-62) | GI% at 10^−5 M (MOLT-4) | GI% at 10^−5 M (NCI-H23) | GI% at 10^−5 M (OVCAR-4) | GI% at 10^−5 M (OVCAR-5) | GI% at 10^−5 M (OVCAR-8) | GI% at 10^−5 M (RPMI-8226) | GI% at 10^−5 M (SF-268) | GI% at 10^−5 M (SF-539) | GI% at 10^−5 M (SK-MEL-28) | GI% at 10^−5 M (SK-MEL-2) | GI% at 10^−5 M (SK-MEL-5) | GI% at 10^−5 M (T-47D) | GI% at 10^−5 M (TK-10) | GI% at 10^−5 M (UO-31) | GI% at 10^−5 M (HL-60(TB)) | GI% at 10^−5 M (IGROV1) | other results
O=c1c2ccccc2nc(COc2ccccc2)n1NS(=O)(=O)c1ccc(Cl)cc1 [Compound 5c, 4-chloro-N-(4-oxo-2-(phenoxymethyl)quinazolin-3(4H)-yl)benzenesulfonamide] | – (– means GI < 10%) | 16.40% | 45.60% | 25.00% | 30.51% | 17.19% | – (– means GI < 10%) | – (– means GI < 10%) | – (– means GI < 10%) | – (– means GI < 10%) | 11.40% | 13.14% | 12.91% | 25.29% | – (– means GI < 10%) | 25.18% | – (– means GI < 10%) | 37.25% | 24.32% | 38.26% | GI% at 10^−5 M (MCF7): 58.11%; GI% at 10^−5 M (MDA-MB-468): 59.61%; melting point: 208 to 210 °C
COc1cc(C=Nn2c(COc3ccccc3)nc3ccccc3c2=O)ccc1O [Compound 6a, 3-((4-hydroxy-3-methoxybenzylidene)amino)-2-(phenoxymethyl)quinazolin-4(3H)-one] | – (– means GI < 10%) | – (– means GI < 10%) | – (– means GI < 10%) | – (– means GI < 10%) | – (– means GI < 10%) | – (– means GI < 10%) | – (– means GI < 10%) | – (– means GI < 10%) | – (– means GI < 10%) | – (– means GI < 10%) | – (– means GI < 10%) | – (– means GI < 10%) | – (– means GI < 10%) | – (– means GI < 10%) | – (– means GI < 10%) | – (– means GI < 10%) | – (– means GI < 10%) | 15.75% | – (– means GI < 10%) | – (– means GI < 10%) | GI% at 10^−5 M (MCF7): 22.94%; GI% at 10^−5 M (MDA-MB-468): – (– means GI < 10%); melting point: 191 to 193 °C
O=c1c2ccccc2nc(COc2ccccc2)n1N=CC=Cc1ccccc1 [Compound 6b, 2-(phenoxymethyl)-3-((3-phenylallylidene)amino)quinazolin-4(3H)-one] | – (– means GI < 10%) | – (– means GI < 10%) | 23.15% | – (– means GI < 10%) | – (– means GI < 10%) | – (– means GI < 10%) | 10.01% | – (– means GI < 10%) | – (– means GI < 10%) | 12.52% | – (– means GI < 10%) | – (– means GI < 10%) | – (– means GI < 10%) | – (– means GI < 10%) | – (– means GI < 10%) | – (– means GI < 10%) | – (– means GI < 10%) | 10.2% | – (– means GI < 10%) | – (– means GI < 10%) | GI% at 10^−5 M (MCF7): 16.22%; GI% at 10^−5 M (MDA-MB-468): 10.89%; melting point: 211 to 213 °C
CN1CCN(CC(=O)Nn2c(COc3ccccc3)nc3ccccc3c2=O)CC1 [Compound 8a, 2–(4-methylpiperazin-1-yl)-N-(4-oxo-2-(phenoxymethyl)quinazolin-3(4H)-yl)acetamide] | – (– means GI < 10%) | 18.15% | 44.04% | – (– means GI < 10%) | 11.86% | – (– means GI < 10%) | – (– means GI < 10%) | – (– means GI < 10%) | – (– means GI < 10%) | 23.17% | – (– means GI < 10%) | 11.37% | – (– means GI < 10%) | 12.84% | 17.11% | 32.2% | – (– means GI < 10%) | 29.32% | 19.74% | 26.87% | GI% at 10^−5 M (MCF7): 57.64%; GI% at 10^−5 M (MDA-MB-468): 49.06%; melting point: 158 to 160 °C
O=C(CN1CCN(c2ccccc2)CC1)Nn1c(COc2ccccc2)nc2ccccc2c1=O [Compound 8b, N-(4-oxo-2-(phenoxymethyl)quinazolin-3(4H)-yl)-2–(4-phenylpiperazin-1-yl)acetamid] | – (– means GI < 10%) | – (– means GI < 10%) | – (– means GI < 10%) | – (– means GI < 10%) | – (– means GI < 10%) | 10.01% | – (– means GI < 10%) | – (– means GI < 10%) | – (– means GI < 10%) | – (– means GI < 10%) | – (– means GI < 10%) | – (– means GI < 10%) | – (– means GI < 10%) | – (– means GI < 10%) | – (– means GI < 10%) | – (– means GI < 10%) | – (– means GI < 10%) | 20.18% | – (– means GI < 10%) | – (– means GI < 10%) | GI% at 10^−5 M (MCF7): – (– means GI < 10%); GI% at 10^−5 M (MDA-MB-468): – (– means GI < 10%); melting point: 115 to 117 °C
